The test system of this test is CD2F1 mice, L1210 leukemia ip, survival T/C. Briefly: NCI In Vivo Anticancer Drug Screen. Data for tumor model L1210 Leukemia (intraperitoneal) in CD2F1 (CDF1) mice. The conditions noted are these: higher = longer survival. The essentials: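 Each value reflects a quotient of treated over vehicle control outcomes in mice with a transplanted tumor.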
The mark [1] stands for this setting: endpoint: mean survival time, dose: 100.0 mg/kg/injection, schedule: Q01DX001 (ip), vehicle: saline with Tween-80.
[2] abbreviates: endpoint: mean survival time, dose: 200.0 mg/kg/injection, schedule: Q01DX001 (ip), vehicle: saline with Tween-80.
[3] abbreviates: endpoint: mean survival time, dose: 400.0 mg/kg/injection, schedule: Q01DX001 (ip), vehicle: saline with Tween-80.
Setting [4] is: endpoint: mean survival time, dose: 100.0 mg/kg/injection, schedule: Q01DX009 (ip), vehicle: saline with Tween-80.
The mark [5] stands for this setting: endpoint: median survival time, dose: 50.0 mg/kg/injection, schedule: Q01DX009 (ip), vehicle: saline with Tween-80.
Setting [6] is: endpoint: mean survival time, dose: 200.0 mg/kg/injection, schedule: Q01DX009 (ip), vehicle: saline with Tween-80.

Molecules are shown by their SMILES. “And” between values parts separate entries of the source, which are not always exact repeats. Equal entries are not always repeated. Inconclusive results and toxic doses are left out.

Regarding `NC(=S)c1cn(C2OC(CO)C(O)C2O)c2ncnc(N)c12` (configuration not stated), the T/C (endpoint: median survival time, dose: 2.5 mg/kg/injection, schedule: Q01DX009 (ip), vehicle: suspension in saline) is 158 % of control; the T/C (endpoint: median survival time, dose: 5.0 mg/kg/injection, schedule: Q01DX009 (ip), vehicle: suspension in saline) was 175 % of control; the T/C (endpoint: median survival time, dose: 10.0 mg/kg/injection, schedule: Q01DX009 (ip), vehicle: suspension in saline) was 91 % of control.
Regarding `Nc1nc(SCc2ccccc2)c2[nH]cnc2n1`, the T/C runs as follows: (endpoint: mean survival time, dose: 15.6 mg/kg/injection, schedule: Q01DX009 (ip), vehicle: saline) 118 % of control; (endpoint: mean survival time, dose: 31.3 mg/kg/injection, schedule: Q01DX009 (ip), vehicle: saline) 158 % of control and 183 % of control; (endpoint: mean survival time, dose: 37.5 mg/kg/injection, schedule: Q03DX003 (ip), vehicle: saline) 151 % of control; (endpoint: mean survival time, dose: 37.5 mg/kg/injection, schedule: Q04DX003 (ip), vehicle: saline) 164 % of control; (endpoint: mean survival time, dose: 62.5 mg/kg/injection, schedule: Q01DX009 (ip), vehicle: saline) 180 % of control and 181 % of control; (endpoint: mean survival time, dose: 75.0 mg/kg/injection, schedule: Q04DX003 (ip), vehicle: saline) 160 % of control. The T/C is 161 % of control (endpoint: mean survival time, dose: 125.0 mg/kg/injection, schedule: Q01DX009 (ip), vehicle: saline); 107 % of control (endpoint: mean survival time, dose: 150.0 mg/kg/injection, schedule: Q01DX007 (ip), vehicle: saline); 100 % of control (endpoint: mean survival time, dose: 150.0 mg/kg/injection, schedule: Q01DX009 (ip), vehicle: saline); 150 % of control (endpoint: mean survival time, dose: 150.0 mg/kg/injection, schedule: Q03DX003 (ip), vehicle: saline); 150 % of control and 162 % of control (endpoint: median survival time, dose: 31.3 mg/kg/injection, schedule: Q01DX009 (ip), vehicle: saline); 155 % of control and 156 % of control (endpoint: median survival time, dose: 62.5 mg/kg/injection, schedule: Q01DX009 (ip), vehicle: saline). For the same molecule, the T/C is, setting by setting: (endpoint: median survival time, dose: 125.0 mg/kg/injection, schedule: Q01DX009 (ip), vehicle: saline) 88 % of control and 112 % of control; (endpoint: median survival time, dose: 250.0 mg/kg/injection, schedule: Q01DX009 (ip), vehicle: saline) 87 % of control.
Regarding `CC(COCc1ccccc1)COP(N)(=O)N(CCCl)CCCl` (configuration not stated), the T/C reads like this: (endpoint: mean survival time, dose: 15.62 mg/kg/injection, schedule: Q01DX001 (ip), vehicle: DMSO) 97 % of control; (endpoint: mean survival time, dose: 31.3 mg/kg/injection, schedule: Q01DX001 (ip), vehicle: DMSO) 98 % of control; (endpoint: mean survival time, dose: 62.5 mg/kg/injection, schedule: Q01DX001 (ip), vehicle: DMSO) 101 % of control; (endpoint: mean survival time, dose: 125.0 mg/kg/injection, schedule: Q01DX001 (ip), vehicle: DMSO) 111 % of control; (endpoint: mean survival time, dose: 250.0 mg/kg/injection, schedule: Q01DX001 (ip), vehicle: DMSO) 103 % of control; (endpoint: mean survival time, dose: 500.0 mg/kg/injection, schedule: Q01DX001 (ip), vehicle: DMSO) 101 % of control.
Take `CCN(CC)CCCC(C)Nc1cc(C)nc(Nc2nc3cc(Cl)c(Cl)cc3[nH]2)n1` (configuration not stated): the T/C was 101 % of control (endpoint: mean survival time, dose: 5.0 mg/kg/injection, schedule: Q04DX003 (ip), vehicle: saline with Tween-80); 94 % of control (endpoint: mean survival time, dose: 10.0 mg/kg/injection, schedule: Q04DX003 (ip), vehicle: saline with Tween-80); 91 % of control (endpoint: mean survival time, dose: 20.0 mg/kg/injection, schedule: Q04DX003 (ip), vehicle: saline with Tween-80).
With `OC1C2c3ccccc3C(c3c2ccc2ccccc32)C1O` (configuration not stated), the T/C is 100 % of control (endpoint: median survival time, dose: 25.0 mg/kg/injection, schedule: Q04DX003 (ip), vehicle: saline with Tween-80); 100 % of control (endpoint: median survival time, dose: 50.0 mg/kg/injection, schedule: Q04DX003 (ip), vehicle: saline with Tween-80); 100 % of control (endpoint: median survival time, dose: 100.0 mg/kg/injection, schedule: Q04DX003 (ip), vehicle: saline with Tween-80); 88 % of control (endpoint: median survival time, dose: 200.0 mg/kg/injection, schedule: Q04DX003 (ip), vehicle: saline with Tween-80).
Take `CC(Br)C(=O)c1ccc2ncccc2c1` (configuration not stated): the T/C is 98 % of control (endpoint: mean survival time, dose: 12.5 mg/kg/injection, schedule: Q04DX002 (ip), vehicle: saline + alcohol); 101 % of control (endpoint: mean survival time, dose: 25.0 mg/kg/injection, schedule: Q04DX002 (ip), vehicle: saline + alcohol); 95 % of control (endpoint: mean survival time, dose: 50.0 mg/kg/injection, schedule: Q04DX002 (ip), vehicle: saline + alcohol).
As for `Nc1nc[nH]c(=O)c1N`, the T/C by setting is: under setting [1], 107 % of control; under setting [2], 107 % of control; under setting [3], 102 % of control.
Take `O=S(=O)(CCl)OCCCl`: the T/C by setting is: (endpoint: mean survival time, dose: 6.25 mg/kg/injection, schedule: Q01DX009 (ip), vehicle: saline with Tween-80) 101 % of control; (endpoint: mean survival time, dose: 12.5 mg/kg/injection, schedule: Q01DX009 (ip), vehicle: saline with Tween-80) 115 % of control and 117 % of control; (endpoint: mean survival time, dose: 25.0 mg/kg/injection, schedule: Q01DX009 (ip), vehicle: saline with Tween-80) 120 % of control; (endpoint: mean survival time, dose: 50.0 mg/kg/injection, schedule: Q01DX009 (ip), vehicle: saline with Tween-80) 193 % of control; under setting [4], 86 % of control; (endpoint: median survival time, dose: 6.25 mg/kg/injection, schedule: Q01DX009 (ip), vehicle: saline with Tween-80) 101 % of control and 108 % of control. Besides, the T/C was 100 % of control and 104 % of control (endpoint: median survival time, dose: 12.5 mg/kg/injection, schedule: Q01DX009 (ip), vehicle: saline with Tween-80); 120 % of control under setting [5]; 173 % of control (endpoint: median survival time, dose: 100.0 mg/kg/injection, schedule: Q01DX009 (ip), vehicle: saline with Tween-80).
Turning to `COc1cc(C2c3cc4c(cc3C(OC3CCCCO3)C3COC(=O)C23)OCO4)cc(OC)c1OC` (configuration not stated), the T/C runs as follows: (endpoint: median survival time, dose: 1.56 mg/kg/injection, schedule: Q01DX009 (ip), vehicle: Klucel (hydroxypropylcellulose) (HPC)) 109 % of control; (endpoint: median survival time, dose: 3.12 mg/kg/injection, schedule: Q01DX009 (ip), vehicle: Klucel (hydroxypropylcellulose) (HPC)) 120 % of control; (endpoint: median survival time, dose: 3.13 mg/kg/injection, schedule: Q01DX009 (ip), vehicle: Klucel (hydroxypropylcellulose) (HPC)) 114 % of control; (endpoint: median survival time, dose: 6.25 mg/kg/injection, schedule: Q01DX009 (ip), vehicle: Klucel (hydroxypropylcellulose) (HPC)) 120 % of control; (endpoint: median survival time, dose: 12.5 mg/kg/injection, schedule: Q01DX009 (ip), vehicle: Klucel (hydroxypropylcellulose) (HPC)) 101 % of control.
In the case of `O=C(O)C1(C(=O)O)CCCCC1.[NH-]CC1(C[NH-])CCCCC1.[Pt+2]`, the T/C is 118 % of control (endpoint: mean survival time, dose: 30.0 mg/kg/injection, schedule: Q04DX003 (ip), vehicle: suspension in saline) and 118 % of control (endpoint: mean survival time, dose: 60.0 mg/kg/injection, schedule: Q04DX003 (ip), vehicle: suspension in saline).
With `CCOC(=O)CCCc1ccccc1`, the T/C was 93 % of control under setting [4]; 95 % of control under setting [6]; 102 % of control (endpoint: mean survival time, dose: 400.0 mg/kg/injection, schedule: Q01DX009 (ip), vehicle: saline with Tween-80).
As to `NOCc1nnc(Nc2ccccc2)s1`, the T/C is, setting by setting: (endpoint: mean survival time, dose: 100.0 mg/kg/injection, schedule: Q01DX001 (ip), vehicle: saline) 100 % of control; (endpoint: mean survival time, dose: 200.0 mg/kg/injection, schedule: Q01DX001 (ip), vehicle: saline) 97 % of control; (endpoint: mean survival time, dose: 400.0 mg/kg/injection, schedule: Q01DX001 (ip), vehicle: saline) 96 % of control.
Turning to `CC12CCCC1=[N+]1CCCCC1CC2=O` (configuration not stated), the T/C reads like this: (endpoint: mean survival time, dose: 100.0 mg/kg/injection, schedule: Q04DX003 (ip), vehicle: saline) 101 % of control; (endpoint: mean survival time, dose: 200.0 mg/kg/injection, schedule: Q04DX003 (ip), vehicle: saline) 101 % of control.
As to `O=c1[nH]cccc1O`, the T/C under setting [5] is 103 % of control and 104 % of control and 108 % of control; the T/C (endpoint: median survival time, dose: 62.5 mg/kg/injection, schedule: Q01DX009 (ip), vehicle: saline with Tween-80) was 102 % of control; the T/C (endpoint: median survival time, dose: 66.7 mg/kg/injection, schedule: Q03HX027 (ip), vehicle: saline with Tween-80) was 96 % of control; the T/C (endpoint: median survival time, dose: 125.0 mg/kg/injection, schedule: Q01DX009 (ip), vehicle: saline with Tween-80) is 113 % of control; the T/C (endpoint: median survival time, dose: 133.0 mg/kg/injection, schedule: Q03HX027 (ip), vehicle: saline with Tween-80) was 103 % of control; the T/C (endpoint: median survival time, dose: 250.0 mg/kg/injection, schedule: Q01DX009 (ip), vehicle: saline with Tween-80) was 116 % of control. The T/C (endpoint: median survival time, dose: 266.0 mg/kg/injection, schedule: Q03HX027 (ip), vehicle: saline with Tween-80) is 155 % of control.
On to `Cc1cc(N(CCCOS(C)(=O)=O)CCCOS(C)(=O)=O)ccc1C=Nc1ccc(-c2csc(COc3ccccc3)n2)cc1`, for which the T/C reads like this: under setting [1], 89 % of control; under setting [4], 90 % of control; under setting [2], 91 % of control; under setting [6], 86 % of control; under setting [3], 88 % of control.

The values are drawn from PubChem BioAssay AID256 (DTP/NCI, 2004).
